Measurements from ChEMBL document CHEMBL3885881, “DrugMatrix”.

Species on record: Rattus norvegicus
Experiment: DrugMatrix - Regimen: Daily Repeat
Assay type: toxicity, organism-based, Sprague-Dawley
Design: regimen Daily Repeat, gender Male, age 6-8 weeks
Details: in vivo, po, route oral GAVAGE, vehicle .5 % CMC; for ABSOLUTE BASOPHIL / ABSOLUTE EOSINOPHIL / ABSOLUTE LYMPHOCYTE / ABSOLUTE MONOCYTE / ABSOLUTE SEGMENTED NEUTROPHIL / BASOPHIL / EOSINOPHIL / ERYTHROCYTE COUNT / HEMATOCRIT / HEMOGLOBIN / LEUKOCYTE COUNT / LYMPHOCYTE / MEAN CORPUSCULAR HEMOGLOBIN / MEAN CORPUSCULAR HEMOGLOBIN CONCENTRATION / MEAN CORPUSCULAR VOLUME / MONOCYTE / NEUTROPHIL / NUCLEATED RED BLOOD CELLS / PLATELET COUNT: tissue Blood; for ALANINE AMINOTRANSFERASE / ALBUMIN / ALKALINE PHOSPHATASE / ASPARTATE AMINOTRANSFERASE / BLOOD UREA NITROGEN / CARBON DIOXIDE / CHLORIDE / CHOLESTEROL / CREATINE PHOSPHOKINASE / CREATININE / GLUCOSE / LACTATE DEHYDROGENASE / LIPASE / PHOSPHORUS / POTASSIUM / SODIUM / TOTAL BILIRUBIN / TOTAL PROTEIN / URIC ACID: tissue Plasma
[1] = 0 mg/kg, 72 h, dose level Control, time 3 day
[2] = 0 mg/kg, 120 h, dose level Control, time 5 day
[3] = 55 mg/kg, 72 h, dose level Low, time 3 day

SMILES: CCN1CCCC1CNC(=O)c1cc(S(N)(=O)=O)ccc1OC (centres undefined) [SULPIRIDE]
- ABSOLUTE BASOPHIL [1]: 0 CELLS/uL
- ABSOLUTE EOSINOPHIL [1]: 0 CELLS/uL
- ABSOLUTE LYMPHOCYTE [1]: 12269.67 CELLS/uL
- ABSOLUTE MONOCYTE [1]: 160.33 CELLS/uL
- ABSOLUTE SEGMENTED NEUTROPHIL [1]: 970 CELLS/uL
- BASOPHIL [1]: 0%
- EOSINOPHIL [1]: 0%
- ERYTHROCYTE COUNT [1]: 5.76 x10E6/uL
- HEMATOCRIT [1]: 36.57%
- HEMOGLOBIN [1]: 14.22 G/DL
- LEUKOCYTE COUNT [1]: 13.4 x10E3/uL
- LYMPHOCYTE [1]: 91.67%
- MEAN CORPUSCULAR HEMOGLOBIN [1]: 24.67 pg
- MEAN CORPUSCULAR HEMOGLOBIN CONCENTRATION [1]: 38.85 G/DL
- MEAN CORPUSCULAR VOLUME [1]: 63.52 fL
- MONOCYTE [1]: 1.17%
- NEUTROPHIL [1]: 7.17%
- NUCLEATED RED BLOOD CELLS [1]: 0.33 /100WBC
- PLATELET COUNT [1]: 1250.83 x10E3/uL
- ALANINE AMINOTRANSFERASE [1]: 49.17 u/L
- ALBUMIN [1]: 4.33 G/DL
- ALKALINE PHOSPHATASE [1]: 378.5 u/L
- ASPARTATE AMINOTRANSFERASE [1]: 82.17 u/L
- BLOOD UREA NITROGEN [1]: 15 mg/dL
- CARBON DIOXIDE [1]: 34.33 mmol/L
- CHLORIDE [1]: 99.17 MEQ/L
- CHOLESTEROL [1]: 71.17 mg/dL
- CREATINE PHOSPHOKINASE [1]: 258.67 u/L
- CREATININE [1]: 0.18 mg/dL
- GLUCOSE [1]: 142.67 mg/dL
- LACTATE DEHYDROGENASE [1]: 154.33 u/L
- LIPASE [1]: 9 u/L
- PHOSPHORUS [1]: 11.67 mg/dL
- POTASSIUM [1]: 7.13 MEQ/L
- SODIUM [1]: 142.22 MEQ/L
- TOTAL BILIRUBIN [1]: 0.18 mg/dL
- TOTAL PROTEIN [1]: 5.77 G/DL
- URIC ACID [1]: 1.55 mg/dL
- ABSOLUTE BASOPHIL [2]: 0 CELLS/uL
- ABSOLUTE EOSINOPHIL [2]: 23.33 CELLS/uL
- ABSOLUTE LYMPHOCYTE [2]: 14943.67 CELLS/uL
- ABSOLUTE MONOCYTE [2]: 32 CELLS/uL
- ABSOLUTE SEGMENTED NEUTROPHIL [2]: 1084.33 CELLS/uL
- BASOPHIL [2]: 0%
- EOSINOPHIL [2]: 0.17%
- ERYTHROCYTE COUNT [2]: 5.71 x10E6/uL
- HEMATOCRIT [2]: 35.28%
- HEMOGLOBIN [2]: 14.27 G/DL
- LEUKOCYTE COUNT [2]: 16.08 x10E3/uL
- LYMPHOCYTE [2]: 93%
- MEAN CORPUSCULAR HEMOGLOBIN [2]: 25.02 pg
- MEAN CORPUSCULAR HEMOGLOBIN CONCENTRATION [2]: 40.43 G/DL
- MEAN CORPUSCULAR VOLUME [2]: 61.82 fL
- MONOCYTE [2]: 0.17%
- NEUTROPHIL [2]: 6.67%
- NUCLEATED RED BLOOD CELLS [2]: 0.33 /100WBC
- PLATELET COUNT [2]: 1274 x10E3/uL
- ALANINE AMINOTRANSFERASE [2]: 54.17 u/L
- ALBUMIN [2]: 4.22 G/DL
- ALKALINE PHOSPHATASE [2]: 373.17 u/L
- ASPARTATE AMINOTRANSFERASE [2]: 81.83 u/L
- BLOOD UREA NITROGEN [2]: 16.67 mg/dL
- CARBON DIOXIDE [2]: 30.33 mmol/L
- CHLORIDE [2]: 99 MEQ/L
- CHOLESTEROL [2]: 71 mg/dL
- CREATINE PHOSPHOKINASE [2]: 273.5 u/L
- CREATININE [2]: 0.22 mg/dL
- GLUCOSE [2]: 141.83 mg/dL
- LACTATE DEHYDROGENASE [2]: 153.67 u/L
- LIPASE [2]: 10.33 u/L
- PHOSPHORUS [2]: 11.38 mg/dL
- POTASSIUM [2]: 7.08 MEQ/L
- SODIUM [2]: 142.75 MEQ/L
- TOTAL BILIRUBIN [2]: 0.18 mg/dL
- TOTAL PROTEIN [2]: 6.1 G/DL
- URIC ACID [2]: 1.67 mg/dL
- ABSOLUTE BASOPHIL [3]: 0 CELLS/uL
- ABSOLUTE EOSINOPHIL [3]: 0 CELLS/uL
- ABSOLUTE LYMPHOCYTE [3]: 13264 CELLS/uL
- ABSOLUTE MONOCYTE [3]: 100 CELLS/uL
- ABSOLUTE SEGMENTED NEUTROPHIL [3]: 869.33 CELLS/uL
- BASOPHIL [3]: 0%
- EOSINOPHIL [3]: 0%
- ERYTHROCYTE COUNT [3]: 5.78 x10E6/uL
- HEMATOCRIT [3]: 37.4%
- HEMOGLOBIN [3]: 14.93 G/DL
- LEUKOCYTE COUNT [3]: 14.23 x10E3/uL
- LYMPHOCYTE [3]: 93.33%
- MEAN CORPUSCULAR HEMOGLOBIN [3]: 25.87 pg
- MEAN CORPUSCULAR HEMOGLOBIN CONCENTRATION [3]: 39.97 G/DL
- MEAN CORPUSCULAR VOLUME [3]: 64.7 fL
- MONOCYTE [3]: 0.67%
- NEUTROPHIL [3]: 6%
- NUCLEATED RED BLOOD CELLS [3]: 0 /100WBC
- PLATELET COUNT [3]: 1265.67 x10E3/uL
- ALANINE AMINOTRANSFERASE [3]: 40.33 u/L
- ALBUMIN [3]: 4.83 G/DL
- ALKALINE PHOSPHATASE [3]: 335 u/L
- ASPARTATE AMINOTRANSFERASE [3]: 84.67 u/L
- BLOOD UREA NITROGEN [3]: 20.33 mg/dL
- CARBON DIOXIDE [3]: 26 mmol/L
- CHLORIDE [3]: 104 MEQ/L
- CHOLESTEROL [3]: 78.67 mg/dL
- CREATINE PHOSPHOKINASE [3]: 305 u/L
- CREATININE [3]: 0.26 mg/dL
- GLUCOSE [3]: 178.33 mg/dL
- LACTATE DEHYDROGENASE [3]: 183 u/L
- LIPASE [3]: 11.67 u/L
- PHOSPHORUS [3]: 15 mg/dL
- POTASSIUM [3]: 6.9 MEQ/L
- SODIUM [3]: 149.67 MEQ/L
- TOTAL BILIRUBIN [3]: 0.13 mg/dL
- TOTAL PROTEIN [3]: 6.7 G/DL
- URIC ACID [3]: 2.27 mg/dL
